This is an account of results in US20260376293A1, “METHODS FOR STUDYING GPR158 PHARMACOLOGY AND IDENTIFICATION OF ITS LIGANDS” (UNIVERSITY OF FLORIDA RESEARCH FOUNDATION, INCORPORATED, priority 2022, published 2026).

In experiment [1] the target is T1, GPR158 S266A mutant (Homo sapiens, UniProt Q5T848, S266A).
T1 construct: RGS7/Gβ5 co-expressed in the GAP BRET row only
T1 sequence (Q5T848 24-1215 S266A): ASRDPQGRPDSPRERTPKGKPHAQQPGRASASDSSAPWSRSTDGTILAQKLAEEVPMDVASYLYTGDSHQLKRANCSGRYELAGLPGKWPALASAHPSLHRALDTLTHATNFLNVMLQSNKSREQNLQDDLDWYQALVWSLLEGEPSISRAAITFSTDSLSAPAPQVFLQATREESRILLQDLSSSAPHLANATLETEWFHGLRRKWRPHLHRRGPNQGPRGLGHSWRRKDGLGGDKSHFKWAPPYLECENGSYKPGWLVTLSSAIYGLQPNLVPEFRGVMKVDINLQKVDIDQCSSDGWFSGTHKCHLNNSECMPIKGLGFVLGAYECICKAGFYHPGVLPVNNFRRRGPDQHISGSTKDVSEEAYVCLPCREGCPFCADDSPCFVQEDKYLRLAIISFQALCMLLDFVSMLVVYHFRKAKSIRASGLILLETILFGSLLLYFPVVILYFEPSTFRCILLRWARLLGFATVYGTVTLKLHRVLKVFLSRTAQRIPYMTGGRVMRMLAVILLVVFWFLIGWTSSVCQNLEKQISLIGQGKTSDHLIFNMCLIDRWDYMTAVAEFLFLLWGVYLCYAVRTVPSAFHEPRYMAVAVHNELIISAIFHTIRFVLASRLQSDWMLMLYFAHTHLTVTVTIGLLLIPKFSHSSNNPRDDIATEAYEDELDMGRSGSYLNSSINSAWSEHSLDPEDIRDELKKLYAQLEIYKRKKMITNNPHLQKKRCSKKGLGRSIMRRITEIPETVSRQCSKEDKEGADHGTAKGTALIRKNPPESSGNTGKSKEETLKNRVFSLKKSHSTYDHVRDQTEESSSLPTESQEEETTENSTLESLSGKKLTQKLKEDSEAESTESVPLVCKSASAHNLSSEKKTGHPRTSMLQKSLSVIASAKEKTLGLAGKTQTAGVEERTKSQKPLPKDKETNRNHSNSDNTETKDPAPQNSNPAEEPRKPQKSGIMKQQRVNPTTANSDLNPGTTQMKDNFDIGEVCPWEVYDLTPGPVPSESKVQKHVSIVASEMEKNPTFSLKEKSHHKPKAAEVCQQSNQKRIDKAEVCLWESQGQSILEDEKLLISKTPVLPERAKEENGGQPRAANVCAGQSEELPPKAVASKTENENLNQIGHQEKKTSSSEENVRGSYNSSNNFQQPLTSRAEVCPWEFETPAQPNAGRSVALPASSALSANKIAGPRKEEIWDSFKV
Kind of experiment: Radioligand binding assay on GPR158 mutant S266A. The text has this: (§1) FIGS. 11A-11G. Probing Cache domain of GPR158 as a ligand binding site A) Computational docking of glycine into putative ligand binding pocket on GPR158 Cache domain. Glycine and directly interacting residues are shown as sticks. Hydrogen bonds and van der Waals interactions are shown as dotted lines. B) Diagram showing interactions in the docked model of glycine against GPR158 Cache domain. Hydrogen bonds are shown as dashed lines, van der Waals interactions are shown as intersecting semicircles, and the secondary structural context of Ser266 and Tyr269 is shown as an arc. Dagger indicates a residue implicated in glycine binding in 11A. C) Radioligand binding assay of ^3H-glycine in cells expressing GPR158 mutants. Data shown mean±s.e.m. of 3 independent experiments, *p<0.05, ns=p>0.05 one-way ANOVA. D) Functional evaluation of GPR158 mutants in GAP BRET assay. Error bars are mean±s.e.m. of 3 independent experiments in triplicate. *p<0.05, **p<0.01, ***p<0.001, ****p<0.0001, ns=p>0.05, two-way ANOVA Columns with no fill (Ctrl), columns with angled-line fill (Glycine) E) Quantification of glycine inhibitory effect on kGAP normalized to the effect seen with WT receptor. […]
Whole cell binding was performed using cDNA of GPR158-venus or each GPR158-venus mutant or empty pcDNA3.1+ for ctrl cells. […] Finally radioactivity was measured using the liquid scintillation analyzer Tri-Carb 4910 TR.

In experiment [2] the test system is GPR158 R173A, E271A, and Y269A mutants. Kind of experiment: GAP BRET assay on GPR158 mutants defective in glycine binding. Type of experiment: cell-based, human.
Text: as §1, with “C) Radioligand binding assay of ^3H-glycine in cells expressing GPR158 mutants. Data shown mean±s.e.m. of 3 independent experiments, *p<0.05, ns=p>0.05 one-way ANOVA. D) Functional evaluation of GPR158 mutants in GAP BRET assay.” left out
Cellular measurements of BRET between Venus-Gβ1γ2 and masGRK3ct-Nluc were performed to examine GAP activity of RGS protein in living cells (described in detail in Masuho et al., 2015 (40)). […] The BRET signal was determined by calculating the ratio of the light emitted by the Venus-Gβ1γ2 (535 nm with a 30 nm band path width) over the light emitted by the masGRK3ct-Nluc (475 nm with a 30 nm band path width). […]

`NCC(=O)O` [glycine]: in experiment [1], the glycine binding result is given as “normally bind glycine”. Further, the “glycine inhibition of GAP activity of RGS7/Gβ5” value in experiment [2] is listed as “lost an ability to inhibit the GAP-activity of RGS7/Gβ5”.
